According to patent US20100003217A1, “Compounds and Pharmaceutical Compositions for the Treatment of Viral Infections” (priority 2008, published 2010):

Key:
[1] = Metabolite profile in rat plasma; format: in vivo, male Sprague-Dawley rats; conditions: rat terminal plasma, IV (2, 6, 24 h) and PO (6 h)
Procedure: Pooled terminal rat plasma samples were prepared for Group 1A, Group 1C, and Groups 2A-C. The pools were prepared by combining 1 mL of plasma from each of the four animals. Subsamples (2 mL each) of the pooled samples were transferred to 15-mL conical centrifuge tubes for extraction. To each subsample, 6 mL of methanol were added and each mixture was vortexed vigorously and then centrifuged at 5700×g for 15 minutes. The supernatant (extract 1) was transferred to a 15-mL tube. The pellets were further extracted with methanol (2 mL). Each sample was vortexed thoroughly to ensure mixing. The samples were centrifuged as described above. The supernatant (extract 2) was removed. The total volume of each extract was recorded. […] All extracts and reconstituted extracts were analyzed by LSC. Reconstituted extracts containing sufficient radioactivity were analyzed by HPLC.
Terminal plasma samples were pooled, extracted and prepared for HPLC analysis as described above. For Group 1, terminal plasma samples (2, 6, and 24 h) were pooled and analyzed by HPLC as described above. For Group 2, only the 6-h sample had sufficient radioactivity for analysis. […]

[2] = Cytotoxicity (MTS assay), 184R-A cells; format: cell-based; conditions: human, 184R-A cells (S282T), 184R-A (S282T), N = 3
Procedure: Cells were plated and treated with inhibitors as described above.

[3] = target: CYP2C9 (Homo sapiens, UniProt P11712); assay: Incubation with human recombinant CYP450 supersomes, 2C9; format: in vitro ADME; conditions: CYP450 2C9 supersomes, 60 min, 10 μM, average of two experiments
CYP2C9, sequence (P11712 whole entry): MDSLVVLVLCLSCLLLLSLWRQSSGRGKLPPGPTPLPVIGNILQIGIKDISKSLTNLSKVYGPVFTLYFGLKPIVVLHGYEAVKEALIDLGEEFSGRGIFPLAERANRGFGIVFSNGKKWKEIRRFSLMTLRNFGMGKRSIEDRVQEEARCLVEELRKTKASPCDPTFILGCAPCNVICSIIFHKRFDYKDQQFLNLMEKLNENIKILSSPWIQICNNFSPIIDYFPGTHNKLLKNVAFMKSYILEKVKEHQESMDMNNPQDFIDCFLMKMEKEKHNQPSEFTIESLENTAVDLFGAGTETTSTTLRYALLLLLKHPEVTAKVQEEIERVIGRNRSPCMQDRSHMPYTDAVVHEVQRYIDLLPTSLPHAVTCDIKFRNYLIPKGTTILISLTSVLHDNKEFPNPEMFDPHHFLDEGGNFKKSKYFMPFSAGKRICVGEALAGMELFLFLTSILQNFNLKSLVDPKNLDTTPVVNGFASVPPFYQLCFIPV
Procedure: (§1) Supersomes—Incubations were conducted in a final volume of 0.1 mL reaction buffer (50-100 mM potassium phosphate, pH 7.4 or 100 mM Tris-HCL, pH 7.4) according to protocol provided with each CYP450 supersome. Each reaction contained […] of CYP450 supersome, 1.3 mM NADP^+, 3.3 mM glucose-6-phosphate, 0.4 U/mL glucose-6-phosphate dehydrogenase, 3.3 mM MgCl2 and 10 μM Compound 1. Following incubation for 60 min at 37° C., 100 μL of stop solution (acetonitrile:methanol; 1:1) was added and samples centrifuged for 10 min at 10,000×g. The supernatant was then dried and reconstituted in 10 mM potassium phosphate, pH 5, further transferred to an HPLC glass vial and analyzed by HPLC-UV (described above).

[4] = target: CYP2E1 (Homo sapiens, UniProt P05181); assay: Incubation with human recombinant CYP450 supersomes, 2E1; format: in vitro ADME; conditions: CYP450 2E1 supersomes, 60 min, 10 μM, average of two experiments
CYP2E1, sequence (P05181 whole entry): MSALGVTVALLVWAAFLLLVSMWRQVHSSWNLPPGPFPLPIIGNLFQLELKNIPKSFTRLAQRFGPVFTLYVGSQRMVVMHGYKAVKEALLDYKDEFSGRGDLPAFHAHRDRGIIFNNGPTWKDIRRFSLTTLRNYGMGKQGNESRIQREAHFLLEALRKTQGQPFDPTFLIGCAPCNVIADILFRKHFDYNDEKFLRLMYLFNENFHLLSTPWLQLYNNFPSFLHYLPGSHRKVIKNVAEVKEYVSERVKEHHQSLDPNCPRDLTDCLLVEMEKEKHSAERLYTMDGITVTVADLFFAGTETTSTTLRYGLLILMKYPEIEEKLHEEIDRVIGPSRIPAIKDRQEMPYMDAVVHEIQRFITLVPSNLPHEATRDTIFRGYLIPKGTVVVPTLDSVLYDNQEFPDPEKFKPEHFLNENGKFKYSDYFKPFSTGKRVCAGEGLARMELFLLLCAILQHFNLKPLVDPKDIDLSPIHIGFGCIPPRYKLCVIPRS
Procedure: as §1

[5] = Radiochemical purity of the test article in dose formulations before and after dosing; format: physicochemical; conditions: PEG 200 with 5% DMSO
Procedure: Two dose formulations (50 mg/mL for the IV dose Groups 1A-C and 100 mg/mL for the PO dose Groups 2A-C) were prepared in PEG 200 containing 5% DMSO. Subsamples of the dose formulations were removed before and after the dose administration. An aliquot (10 μL) of each subsample was diluted by adding methanol (490 μL) and 20 mM ammonium formate in water (1500 μL). The diluted dose formulations were analyzed for determination of radiochemical purity by HPLC method 1.
Two dose formulations (50 mg/kg for the IV dose Groups 1A-C and 100 mg/kg for the PO dose Groups 2A-C) were prepared by the following procedure. Both formulations were prepared in PEG 200 containing 5% DMSO. The required amount of radioactive material was weighed and ground to a fine powder with a spatula. 30% of the final volume of PEG 200 and the weighed test article was added to a formulation vial while stirring under magnetic agitation to obtain a uniform formulation. The final volume was made up with PEG 200. The formulation was sonicated at room temperature for 15 minutes or longer to obtain homogenous suspension. The cycles of sonication/agitation were continued until the formulation was homogeneous. Triplicate aliquots were removed for determination of homogeneity (CV). The radioactivity concentration of the formulation was determined and specific activity was calculated.
The dose aliquots were analyzed by HPLC method 1 after diluting 10 μL of each formulation with 490 μL of methanol and 1.5 mL of the aqueous mobile phase.

[6] = target: CYP2A6 (Homo sapiens, UniProt P11509); assay: Incubation with human recombinant CYP450 supersomes, 2A6; format: in vitro ADME; conditions: CYP450 2A6 supersomes, 60 min, 10 μM, average of two experiments
CYP2A6, sequence (P11509 whole entry): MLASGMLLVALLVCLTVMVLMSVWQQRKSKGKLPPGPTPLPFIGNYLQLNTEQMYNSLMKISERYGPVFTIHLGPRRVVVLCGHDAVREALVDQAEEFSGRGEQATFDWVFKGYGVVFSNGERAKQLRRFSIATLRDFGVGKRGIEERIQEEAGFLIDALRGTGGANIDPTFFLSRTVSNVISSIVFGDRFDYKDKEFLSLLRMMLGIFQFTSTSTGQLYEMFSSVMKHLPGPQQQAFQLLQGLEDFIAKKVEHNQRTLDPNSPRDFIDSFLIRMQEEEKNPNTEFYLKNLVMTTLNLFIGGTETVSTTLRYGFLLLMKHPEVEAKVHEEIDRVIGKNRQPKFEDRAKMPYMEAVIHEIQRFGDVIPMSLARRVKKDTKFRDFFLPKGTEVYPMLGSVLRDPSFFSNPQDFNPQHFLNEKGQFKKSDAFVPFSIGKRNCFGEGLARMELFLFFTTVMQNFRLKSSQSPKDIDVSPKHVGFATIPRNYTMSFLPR
Procedure: as §1

Row | Compound | Plasma metabolites detected [1] | CC50 at 3 days [2] | % Residual Compound 1 [3] | % Residual Compound 1 [4] | Radiochemical Purity of the test article in dose formulation (total of two isomers) ([5]; IV formulation, Groups 1A-C, Postdose) | Radiochemical Purity of the test article in dose formulation (total of two isomers) ([5]; IV formulation, Groups 1A-C, Predose) | Radiochemical Purity of the test article in dose formulation (total of two isomers) ([5]; PO formulation, Groups 2A-C, Postdose) | Radiochemical Purity of the test article in dose formulation (total of two isomers) ([5]; PO formulation, Groups 2A-C, Predose) | % Residual Compound 1 [6]
1 | C[C@@]1(O)[C@H](O)[C@@H](CO)O[C@H]1n1cnc2c(=O)[nH]c(N)nc21 [2′-C-methyl guanosine, 9-(2-C-methyl-β-D-ribofuranosyl)guanine, reference compound] | only detectable metabolite |  |  |  |  |  |  |  | 
2 | CC(C)(CO)C(=O)SCCOP(=O)(NCc1ccccc1)OC[C@H]1O[C@@H](n2cnc3c(=O)[nH]c(N)nc32)[C@](C)(O)[C@@H]1O (mixture of isomers) [Compound 1, 3-hydroxy-2,2-dimethyl-thiopropionic acid S-(2-{[(2R,3R,4R,5R)-5-(2-amino-6-oxo-1,6-dihydro-purin-9-yl)-3,4-dihydroxy-4-methyl-tetrahydro-furan-2-ylmethoxy]-benzylamino-phosphoryloxy}-ethyl) ester] |  | > 100 µM | 109% | 100% | 99.1% | 99.0% | 98.9% | 98.6% | 105%
